Earlier results, collected in patent publication US5900412A, “Percutaneous/transdermal delivery of ASA and antithrombotic therapies based thereon” (Luitpold Pharma GmbH, priority 1996, dated 1999).

## CC(=O)Oc1ccccc1C(=O)O [ASA, acetylsalicylic acid]
Following peroral administration
  absolute bio-availability of ASA: 50%-70
Gastrointestinal fluids, absorption in stomach and intestine, blood plasma
  metabolism of ASA to SA (in words): rapidly metabolized to its principal metabolite SA
cyclooxygenase
  acetylation and inactivation of cyclooxygenase (in words): irreversible acetylation, and consequently prolonged inactivation, of cyclooxygenase
cyclooxygenase; blood platelets
  duration of inhibition of thromboxane synthesis (life of the thrombocytes): 1 month
